Reference: patent US20070249725A1, “Pharmaceutical formulations of sympathetic antagonist for the treatment of chronic muscle pain” (priority 2006, published 2007)
Where a name gives a salt, the structure may show the parent alone.

Columns and labels:
[1] = cited from earlier work
[2] = Multicenter placebo-controlled dose response study of intramuscular PBZ: safety and tolerance (Example II); assay type: in vivo, human; conditions: most frequent adverse event
[3] = system: trigger point; assay: Efficacy and dosage study for intramuscular injection of phenoxybenzamine hydrochloride: subject-reported percent improvement from baseline; assay type: in vivo, human
Description: A total of 326 male and female subjects, approximately 15 to 85 years old with pain of 4-72 month duration were treated with various doses of phenoxybenzamine. If a potential subject had pain that was clearly muscular and clearly not due to arthritis, nerve root compression or other extramuscular cause, the subject was considered a candidate for phenoxybenzamine hydrochloride injection. Trigger points were identified by palpation. A monopolar EMG needle was then inserted into the trigger point. Another monopolar EMG needle was inserted into a nearby nontender fibers of the same muscle. […] The treatment was repeated in up to 10-12 trigger points per treatment session. Subjects could return for up to 6 treatment sessions, depending on the extent of their pain. The initial treatment was with a dose of 25 mg of phenoxybenzamine hydrochloride in an injection volume of 2 ml. […] For 318 subjects, data were available for analysis for the doses of phenoxybenzamine hydrochloride used, efficacy and incidence of serious adverse events.
Subjects were asked to quantify, in terms of percent improvement from baseline, how they felt after treatment.

SMILES: CC(COc1ccccc1)N(CCCl)Cc1ccccc1 (stereo not drawn) [Phenoxybenzamine Hydrochloride, phenoxybenzamine hydrochloride]
- irritation at the site of the injection [1]: irritation of the muscle at the site of the injection can occur
- injection site pain, share of all adverse events [2]: 77%
- Mean % improvement ([3]; 3 mg dose, Two month, 178 subjects (Interim data)): 54.9%
- % of Subjects with Greater than 25% Improvement ([3]; 10 mg dose, Four month, 84 subjects): 63%
- % of Subjects with Greater than 25% Improvement ([3]; 10 mg dose, One month, 84 subjects): 52%
- % of Subjects with Greater than 25% Improvement ([3]; 10 mg dose, Three month, 84 subjects): 66%
- % of Subjects with Greater than 25% Improvement ([3]; 10 mg dose, Two month, 84 subjects): 68%
- % of Subjects with Greater than 25% Improvement ([3]; 25 mg dose, Four month, 16 subjects): 53%
- % of Subjects with Greater than 25% Improvement ([3]; 25 mg dose, One month, 16 subjects): 57%
- % of Subjects with Greater than 25% Improvement ([3]; 25 mg dose, One week, 16 subjects): 40%
- % of Subjects with Greater than 25% Improvement ([3]; 25 mg dose, Two month, 16 subjects): 66%
- % of Subjects with Greater than 25% Improvement ([3]; 10-12.5 mg dose, Four month, 8 subjects): 100%
- % of Subjects with Greater than 25% Improvement ([3]; 10-12.5 mg dose, One month, 8 subjects): 50%
- % of Subjects with Greater than 25% Improvement ([3]; 10-12.5 mg dose, Two month, 8 subjects): 83%
- subjects reported no improvement in pain ([3]; Example 1, after treatment): About 15%
